Key:
tyrosinase = biological target: T1, tyrosinase (Homo sapiens, UniProt P14679); conditions: in vitro; cited from earlier work
T1 sequence (P14679 19-529): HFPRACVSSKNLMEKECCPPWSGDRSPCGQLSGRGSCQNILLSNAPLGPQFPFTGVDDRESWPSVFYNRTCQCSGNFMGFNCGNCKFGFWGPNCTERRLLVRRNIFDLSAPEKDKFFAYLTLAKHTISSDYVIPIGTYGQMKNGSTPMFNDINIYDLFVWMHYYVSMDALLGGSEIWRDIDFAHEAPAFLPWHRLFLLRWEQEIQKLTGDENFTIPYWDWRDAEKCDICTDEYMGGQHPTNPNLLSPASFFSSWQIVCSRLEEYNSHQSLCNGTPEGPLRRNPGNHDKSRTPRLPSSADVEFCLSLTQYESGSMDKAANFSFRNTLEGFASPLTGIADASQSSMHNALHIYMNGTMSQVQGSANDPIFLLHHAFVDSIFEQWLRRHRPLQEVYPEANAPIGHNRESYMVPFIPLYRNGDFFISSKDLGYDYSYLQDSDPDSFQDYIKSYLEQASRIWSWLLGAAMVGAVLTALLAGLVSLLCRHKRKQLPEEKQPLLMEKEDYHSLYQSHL

[1] = system: ultraviolet-induced skin pigmentation; conditions: Shimizu K. et al., Planta Med 2002; cited from earlier work
[2] = system: tert-Keratinocyte (tKC) cell line; assay: C-map query with the composite skin tone benchmark signature; assay type: cell-based, human; conditions: composite signature of Niacinamide, Hexamidine, Sepiwhite and NAG
Protocol: Individual experiments (referred to as batches) generally comprise 30 to 96 samples analyzed using Affymetrix GeneChip® technology platforms, containing 6 replicates of the vehicle control (e.g., DSMO), 2 replicate samples of a positive control that gives a strong reproducible effect in the cell type used, and samples of the test material/perturbagen. Replication of the test material is done in separate batches due to batch effects. In vitro testing was performed in 6-well plates to provide sufficient RNA for GeneChip® analysis (2-4 μg total RNA yield/well).
Human telomerized keratinocytes (tKC) were obtained from the University of Texas, Southwestern Medical Center, Dallas, Tex. tKC cells were grown in EpiLife® media with 1× Human Keratinocyte Growth Supplement (Invitrogen, Carlsbad, Calif.) on collagen I coated cell culture flasks and plates (Becton Dickinson, Franklin Lakes, N.J.). Keratinocytes were seeded into 6-well plates at 20,000 cells/cm^2 24 hours before chemical exposure. Human skin fibroblasts (BJ cell line from ATCC, Manassas, Va.) were grown in Eagle's Minimal Essential Medium (ATCC) supplemented with 10% fetal bovine serum (HyClone, Logan, Utah) in normal cell culture flasks and plates (Corning, Lowell, Mass.). BJ fibroblasts were seeded into 6-well plates at 12,000 cells/cm^2 24 hours before chemical exposure. […]

[3] = system: Chinese females, 25-55 years old with hyperpigmented spots; assay: 9-week split-face, vehicle-controlled clinical skin tone benefit study; assay type: in vivo, human; conditions: 0.05% in SC-99 vehicle, vs vehicle
Source text: This Example provides evidence of the advantages of using composite signatures and illustrates clinical affirmation of the C-map model for predicting efficacy of skin-lightening agents. This Example supports embodiments related to composite signatures (as described at the end of Example 3). An illustrative “Skin Tone” Signature developed from a genomics study using a composite skin-lightening benchmark agent signature is derived from Niacinamide, Hexamidine, Sepiwhite, and NAG. The signature is used to query C-map and generate a list of potential skin-lightening agents. A top hit, Chlorhexidine Diactate (CD) is entered into clinical testing for confirmation of efficacy. The control for clinical efficacy is a 5% Niacinamide +1% Sepiwhite formulation in the control vehicle.
Primary endpoints are changes in color spot area fraction (image analysis) and melanin spot area fraction (NC2) from baseline. Secondary endpoints are changes from baseline in L*a*b (color image analysis), mean melanin gray scale (NC2), and melanin evenness (NC2). Texture area fraction and pore area fraction are also evaluated to explore impact on other aspects relating to overall skin tone. […] Statistically significant superiority to the high efficacy benchmark skin active agent to vehicle performance is the clinical success criteria.
Study Design: The experimental protocol included a 9-week (1-week preconditioning & 8-week treatment), randomized, double-blind, round robin, vehicle-controlled, split-face tone benefit study. The subject population included 330 Chinese females, 25-55 years old with hyperpigmented spots. 318 subjects completed the entire study. […] Olay Complete SPF 15 UV Moisturizing Lotion is concomitantly used during pre-conditioning and treatment. 0.5 g each test product per half-face (forehead to jaw line; ˜4 mg/cm^2) is dosed 2× a day (morning/evening). Color SAF and treatment area, Melanin SAF, gray scale, evenness by NC2, and additional measurement of Fine Lines and Wrinkle and Texture are by REAL 3.01A. Data collection points include baseline, and ends of weeks 4, 6 and 8. The tested hypothesis is that there is no difference in clinical endpoint versus the benchmark composition treatment. Study site is Kuntai Clinical Center, Beijing, China and study time frame is February 2010 (pre-conditioning) to April 2010.

[4] = system: melanosome transfer from melanocytes to keratinocytes; conditions: in vitro; cited from earlier work
melanocyte = conditions: in vitro; cited from earlier work

SMILES: N[C@H]1C(O)O[C@H](CO)[C@@H](O)[C@@H]1O (some centres unmarked) [glucosamine]
- production of melanin (tyrosinase): reduces production of melanin by inhibiting activation of tyrosinase

SMILES: COc1cc2oc(-c3ccc(O)cc3O)c(CC=C(C)C)c(=O)c2c(O)c1/C=C/C(C)C [artocarpin]
- skin-lightening efficacy [1]: some efficacy for skin-lightening

SMILES: CC(=O)O.CC(=O)O.NC(=N\CCCCCC/N=C(N)/N=C(\N)Nc1ccc(Cl)cc1)/N=C(\N)Nc1ccc(Cl)cc1 [CD, Chlorhexidine Diacetate]
- connectivity to the tone composite benchmark signature query [2]: top connectivity hit
- spot area fraction color test ([3]; 2x a day, week 8): significantly fewer spots when compared to vehicle
- Basal skin tone ([3]; week 8): demonstrated superiority
- Pore area fraction ([3]; week 8): superior efficacy
- Texture area fraction ([3]; week 8): superior efficacy
- NC2 Melanin evenness test ([3]; weeks 6 and 8): superiority to the vehicle
- spot area fraction NC2 test ([3]; weeks 6 and 8): significantly reduced fraction when compared to the vehicle

SMILES: NC(=O)c1cccnc1 [niacinamide]
- melanosome transfer [4]: inhibits melanosome transfer from melanocytes to keratinocytes

SMILES: C=CCCCCCCCCC(=O)N[C@@H](Cc1ccccc1)C(=O)O [N-undecylenoyl-L-phenylalanine]
- binding of alpha-MSH to the melanocyte (melanocyte): inhibit biding of alpha-MSH to the melanocyte

Reference: US10418127B2, “Method of formulating a skin-lightening composition” (The Procter & Gamble Company, priority 2012, dated 2019)
